We go through 16 compounds from US9663523B2, “BET protein-inhibiting 5-aryltriazoleazepines” (BAYER PHARMA AKTIENGESELLSCHAFT, priority 2012, dated 2017).

Assay [1] relates to LAPC-4 cells. In words: Cell proliferation (alamarBlue), LAPC-4. It counts as cell-based. To be noted: Homo sapiens, LAPC4; prostate carcinoma (androgen receptor-positive) cell line, 168 hours incubation. Here is the method: (§1) The ability of the compounds according to the invention to inhibit the proliferation of various cell lines was determined.
(§2) Cell viability was determined by means of the alamarBlue® reagent (Invitrogen). The cells were sown at different densities (MOLM-13, LAPC-4, MOLP-8 and MDA-MB-231: 4000 cells/well; B16F10: 400 cells/well) in 100 μl of growth medium on 96-well microtitre plates. After overnight incubation at 37° C., the fluorescence values (CI values) were determined. The plates were then treated with various substance dilutions and incubated at 37° C. for 96 hours (MOLM-13, MDA-MB-231 and B16F10 cells), 120 hours (MOLP-8 cells) or 168 hours (LAPC-4 cells). Subsequently, the fluorescence values were determined (CO values).
(§3) The compounds according to the invention were tested in the cell lines in Table 2, which represent the indications specified by way of example:
(§4) The indications corresponding to the different cell lines can be found in Table 2.

For assay [2], the target named is BRD4(1) (amino acids 44-168) (Homo sapiens (Human), UniProt O60885). In words: BRD4 binding strength, TR-FRET (HTRF) assay of BRD4(1) / acetylated histone H4 peptide interaction. To be noted: inhibition of BRD4(1)/Ac-H4 peptide interaction. From the text: To assess the BRD4 binding strength of the compounds according to the invention, the ability thereof to inhibit the interaction between BRD4 and acetylated histone H4 in a dose-dependent manner was quantified. For this purpose, a time-resolved fluorescence resonance energy transfer (TR-FRET) assay was used, which measures the binding between N-terminally His6-tagged BRD4(1) (amino acids 44-168) and a synthetic acetylated histone H4 (Ac-H4) peptide with sequence […]-biotin. The recombinant BRD4 protein produced in-house according to Filippakopoulos et al., Cell, 2012, 149:214-231 was expressed in E. coli and purified by means of (Ni-NTA) affinity and (Sephadex G-75) size exclusion chromatography. The Ac-H4 peptide can be purchased, for example, from Biosyntan (Berlin, Germany). […] For this purpose, 100-fold concentrated solutions in DMSO were prepared by serial dilutions (1:3.4) of a 2 mM stock solution into a clear, 384-well microtitre plate (Greiner Bio-One, Frickenhausen, Germany). From this, 50 nl were transferred into a black test plate (Greiner Bio-One, Frickenhausen, Germany). […] This was followed by a 10-minute incubation step at 22° C. for the pre-equilibration of putative complexes between BRD4 and the substances. Subsequently, 3 μl of a solution of 1.67 times the concentration (in assay buffer) consisting of Ac-H4 peptide (83.5 nM) and TR-FRET detection reagents [16.7 nM anti-6His-XL665 and 3.34 nM streptavidin cryptate (both from Cisbio Bioassays, Codolet, France), and 668 mM potassium fluoride (KF)] were added. The mixture was then incubated in the dark at 22° C. for one hour and then at 4° C. overnight. The formation of BRD4/Ac-H4 complexes was determined by the measurement of the resonance energy transfer from the streptavidin-Eu cryptate to the anti-6His-XL665 antibody present in the reaction. […] The ratio of the emissions at 665 nm and at 622 nm was taken as an indicator of the amount of BRD4/Ac-H4 complexes formed.

Assay [3] concerns B16F10 cells. As to the kind of experiment: Cell proliferation (alamarBlue), B16F10. It counts as cell-based. To be noted: Mus musculus, B16-F10; melanoma cell line, 96 hours incubation. On the procedure: as §1
as §2, with “values). For the data analysis, the CI values were subtracted from the CO values and the results were compared between cells which had been treated with various dilutions of the substance or only with buffer solution.” for “values).”
as §3, §4

Assay [4] concerns MOLM-13 cells. In words: Cell proliferation (alamarBlue), MOLM-13. It counts as cell-based. To be noted: Homo sapiens, acute myeloid leukaemia cell line, 96 hours incubation. Here is the method: as §1
as §2, with “values). For the data analysis, the CI values were subtracted from the CO values and the results were compared between cells which had been treated with various dilutions of the substance or only with buffer solution.” for “values).”
as §3, §4

Assay [5] relates to MDA-MB-231 cells. As to the kind of experiment: Cell proliferation (alamarBlue), MDA-MB-231. It counts as cell-based. To be noted: Homo sapiens, mammary carcinoma cell line, 96 hours incubation. On the procedure:
as §1
as §2, with “values). For the data analysis, the CI values were subtracted from the CO values and the results were compared between cells which had been treated with various dilutions of the substance or only with buffer solution.” for “values).”
as §3, §4

The subject of assay [6] is MOLP-8 cells. In words: Cell proliferation (alamarBlue), MOLP-8. To be noted: Homo sapiens, multiple myeloma cell line, 120 hours incubation. It counts as cell-based. On the procedure:
as §1, §2, §3, §4

On to `Cc1nnc2n1-c1ccccc1C(c1ccc(Cl)cc1)=C[C@H]2CC(=O)N1CC2CCC(C1)O2` (single isomer, unassigned; (-)) [Example 33], for which the IC50 in assay [1] worked out at 150 nM; in assay [2], 450 nM; in assay [3] it was 400 nM; in assay [4], 330 nM; in assay [5] it was 1290 nM.
Turning to `Cc1nnc2n1-c1ccccc1C(c1ccc(Cl)cc1)=C[C@H]2Cc1nnc(COCc2ccccc2)o1` [Example 57, (4R)-4-({5-[(benzyloxy)methyl]-1,3,4-oxadiazol-2-yl}methyl)-6-(4-chlorophenyl)-1-methyl-4H-[1,2,4]triazolo[4,3-a][1]benzazepine], the 50% inhibitory concentration (IC50) in assay [2] worked out at 270 nM; in assay [3] it was 570 nM; in assay [4], 410 nM; in assay [6] it was 420 nM.
As to `Cc1nnc2n1-c1ccccc1C(c1ccc(Cl)cc1)=CC2CC(=O)N1CCOCC1` (centres unmarked) [Example 14, 2-[6-(4-chlorophenyl)-1-methyl-4H-[1,2,4]triazolo[4,3-a][1]-benzazepin-4-yl]-1-(morpholin-4-yl)ethanone], the concentration for half-maximal inhibition (IC50) in assay [1] was determined as 210 nM; in assay [2] it was 310 nM; in assay [3], 410 nM; in assay [4] it was 460 nM; in assay [5], 1010 nM.
For `Cc1nnc2n1-c1ccccc1C(c1ccc(Cl)cc1)=CC2CC(=O)N1CCS(=O)(=O)C1` (centres unmarked) [Example 30, 2-[6-(4-chlorophenyl)-1-methyl-4H-[1,2,4]triazolo[4,3-a][1]benzazepin-4-yl]-1-(1,1-dioxido-1,3-thiazolidin-3-yl)ethanone] the same measures were 190 nM, 80 nM, 490 nM, 850 nM and 1130 nM.
For `Cc1nnc2n1-c1ccc(OC(F)(F)F)cc1C(c1ccc(Cl)cc1)=C[C@H]2CC(=O)N1CC2(COC2)C1` [Example 51], the IC50 in assay [3] amounted to 580 nM; in assay [4], 390 nM; in assay [6] it was 360 nM.
For `Cc1nnc2n1-c1ccc(OC(F)(F)F)cc1C(c1ccc(Cl)cc1)=CC2CC(=O)OC(C)(C)C` (centres unmarked) [Example 49, tert-butyl [6-(4-chlorophenyl)-1-methyl-8-(trifluoromethoxy)-4H-[1,2,4]triazolo[4,3-a][1]benzazepin-4-yl]acetate] the same measures were 2200 nM, 1690 nM and 1890 nM.
For the compound `Cc1nnc2n1-c1ccc(OC(F)(F)F)cc1C(c1ccc(Cl)cc1)=CC2CC(=O)OC(C)(C)C` (stereo in doubt) [Example 50, tert-butyl (−)-[(4R)-6-(4-chlorophenyl)-1-methyl-8-(trifluoromethoxy)-4H-[1,2,4]triazolo[4,3-a][1]benzazepin-4-yl]acetate], the IC50 in assay [2] was 790 nM; in assay [3], 1170 nM; in assay [4] it was 880 nM; in assay [6] it was 1050 nM.
For `CCNC(=O)C[C@@H]1C=C(c2ccc(Cl)cc2)c2cc(OC(F)(F)F)ccc2-n2c(C)nnc21` [Example 52, 2-[(4R)-6-(4-chlorophenyl)-1-methyl-8-(trifluoromethoxy)-4H-[1,2,4]triazolo[4,3-a][1]benzazepin-4-yl]-N-ethylacetamide] the same measures were 190 nM, 420 nM, 310 nM and 260 nM.
On the same counts, the results for `Cc1nnc2n1-c1ccc(OC(F)(F)F)cc1C(c1ccc(Cl)cc1)=C[C@H]2CC(=O)NCCN1CCOCC1` [Example 53, 2-[(4R)-6-(4-chlorophenyl)-1-methyl-8-(trifluoromethoxy)-4H-[1,2,4]triazolo[4,3-a][1]benzazepin-4-yl]-N-[2-(morpholin-4-yl)ethyl]acetamide] are 80 nM, 220 nM, 150 nM and 110 nM.
Take `Cc1nnc2n1-c1ccc(OC(F)(F)F)cc1C(c1ccc(Cl)cc1)=C[C@H]2CC(=O)N1CCN2C(=O)CCC2C1` (stereo partly drawn) [Example 56, 2-{[(4R)-6-(4-chlorophenyl)-1-methyl-8-(trifluoromethoxy)-4H-[1,2,4]triazolo[4,3-a][1]benzazepin-4-yl]acetyl}hexahydropyrrolo[1,2-a]pyrazin-6(2H)-one]: the IC50 in assay [2] worked out at 180 nM; in assay [3], 220 nM; in assay [4] it was 150 nM; in assay [6] it was 120 nM.
For `Cc1nnc(C[C@@H]2C=C(c3ccc(Cl)cc3)c3cc(OC(F)(F)F)ccc3-n3c(C)nnc32)o1` [Example 55, (4R)-6-(4-chlorophenyl)-1-methyl-4-[(5-methyl-1,3,4-oxadiazol-2-yl)methyl]-8-(trifluoromethoxy)-4H-[1,2,4]triazolo[4,3-a][1]benzazepine] the same measures were 90 nM, 270 nM, 180 nM and 170 nM.
`Cc1nnc2n1-c1ccccc1C(c1cccc(Cl)c1)=CC2CC(=O)N1CC2(COC2)C1` (centres unmarked) [Example 10, 2-[6-(3-chlorophenyl)-1-methyl-4H-[1,2,4]triazolo[4,3-a][1]benzazepin-4-yl]-1-(2-oxa-6-azaspiro[3.3]hept-6-yl)ethanone]: the IC50 in assay [1] is 1610 nM; in assay [2] it was 730 nM; in assay [3] it was 3030 nM; in assay [4], 2630 nM; in assay [6] it was 1290 nM.
With `Cc1nnc(CC2C=C(c3ccc(Cl)cc3)c3cc(OC(F)(F)F)ccc3-n3c(C)nnc32)o1` (centres unmarked) [Example 54, 6-(4-chlorophenyl)-1-methyl-4-[(5-methyl-1,3,4-oxadiazol-2-yl)methyl]-8-(trifluoromethoxy)-4H-[1,2,4]triazolo[4,3-a][1]benzazepine], the IC50 was determined as 130 nM in assay [2], 500 nM in assay [3], 300 nM in assay [4] and 360 nM in assay [6].
As for `Cc1nnc2n1-c1ccccc1C(c1ccc(Cl)cc1)=CC2CC(=O)N1CC2(CCS2(=O)=O)C1` (centres unmarked) [Example 18, 2-[6-(4-chlorophenyl)-1-methyl-4H-[1,2,4]triazolo[4,3-a][1]benzazepin-4-yl]-1-(1,1-dioxido-1-thia-6-azaspiro[3.3]hept-6-yl)ethanone], the concentration for half-maximal inhibition (IC50) amounted to 360 nM in assay [3], 330 nM in assay [4] and 800 nM in assay [5].
In the case of `Cc1nnc(CC2C=C(c3ccc(Cl)cc3)c3ccccc3-n3c(C)nnc32)s1` (stereo in doubt) [Example 42, (+)-(4R)-6-(4-chlorophenyl)-1-methyl-4-[(5-methyl-1,3,4-thiadiazol-2-yl)methyl]-4H-[1,2,4]triazolo[4,3-a][1]benzazepine], the IC50 in assay [2] came to 50 nM; in assay [3], 140 nM; in assay [4], 170 nM; in assay [6], 110 nM.
As to `Cc1nnc2n1-c1ccccc1C(c1ccc(Cl)cc1)=CC2CC(=O)OC(C)(C)C` (centres unmarked) [Example 8, tert-butyl [6-(4-chlorophenyl)-1-methyl-4H-[1,2,4]triazolo[4,3-a][1]benzazepin-4-yl]acetate], the concentration for half-maximal inhibition (IC50) in assay [1] is 820 nM; in assay [3] it was 1000 nM; in assay [4] it was 3910 nM; in assay [6], 4800 nM.
